{
  "source": "patent US11607422B2",
  "about": "“Uttroside B and derivatives thereof as therapeutics for hepatocellular carcinoma” (Rajiv Gandhi Centre for Biotechnology, an Autonomous …, priority 2016, dated 2023)",
  "key": {"PC-12": {"tested_on": "PC-12", "settings": "literature ref 13; read-out: IC50, cytotoxicity against PC-12; cited from earlier work"}, "[1]": {"tested_on": "caspases 8, 9 & 7 and PARP in HepG2 cells", "experiment": "Western blot of caspase activation and PARP cleavage in HepG2 cells", "assay_type": "cell-based, human", "method": "FIGS. 3A-3F show Uttroside B induces caspase-dependent apoptosis leading to PARP cleavage in HepG2 cells while being independent of cell cycle. FIGS. 3A-3E are images of Western blots showing caspase activation in HepG2 cells. Whole-cell extracts were prepared after treating HepG2 cells with indicated concentrations of Uttroside B for 48 h, the whole cell lysate was resolved on a 15% gel and subjected to western blotting using antibodies against the caspases 8, 9 & 7 detected by ECL. HepG2 cells were treated with Uttroside B for 48 h at different concentrations and the whole cell lysate was resolved on a 10% gel, immunoblotted against anti-PARP and detected by ECL. […] HepG2 cells were treated with Uttroside B for 48 h, stained with propidium iodide and the cell cycle analysis was done using fluorescence activated cell sorter. Curcumin 25 μM (24 h) is used as positive control.\nWestern blot analysis. Approximately 0.5×10^6 cells were grown on 60 mm culture plates and exposed to drugs as indicated for the desired time. The cells were then scraped out, washed in ice cold 1× PBS and pelleted down at 13000 rpm for 2 min. The pelleted cells were suspended in 150 μL of ice-cold whole cell lysis buffer[(20 mMTris of pH 7.4, 250 mM NaCl, 2 mM EDTA, 0.1% Triton, 1 mM DTT (1,4-dithiothreitol), 0.5 mM PMSF, 4 mM sodium orthovanadate, aprotinin (5 mg m/L) and leupeptin (5 mg m/L)] and kept in ice for 30 min, with intermittent vortexing every 5 min. After incubation, the lysate was centrifuged at 13000 rpm for 10 min at 4° C. and the supernatant was collected. The total protein content in the lysate was estimated by Bradford's method, and was then denatured by boiling with 5× loading dye before separating the proteins by SDSpolyacrylamidegel electrophoresis (SDS-PAGE). Following electrophoresis, the polyacrylamide gel and a PVDF membrane were equilibrated with Towbins buffer (1 L, 25 mM Tris, 192 mM glycine, 20% (v/v) methanol (pH 8.3) for 15-30 min and the separated proteins were electro-transferred to PVDF membrane (Hybond-P, GE Healthcare Life science) using Bio-Rad Mini PROTEAN III wet blot apparatus at 100 V for 2 h at cold conditions. After the transfer, the membrane was rinsed with TBS-T (20 mM Tris pH 7.5, 150 mM NaCl, 0.1% Tween 20) buffer and stained with Ponceau-S to ensure uniform transfer. After washing off the Ponceau stain with TBST, the membrane was exposed to 5% fat free milk in TBST buffer for 1 h at room temperature to block the nonspecific binding of antibodies, followed by overnight incubation with the primary antibody [1:1000 dilution] in 3% BSA in TBST buffer at 4° C. […]"}, "HepG2 cells": {"tested_on": "HepG2 cells", "experiment": "MTT cell viability assay in HepG2 cells", "assay_type": "cell-based, human", "settings": "72 h, MTT assay; read-out: IC50, cytotoxicity towards HepG2 cells", "method": "Stocks of crude extracts and isolated compound of S. nigrum was prepared in DMSO for the in vitro studies and stored at −20° C. The DMSO concentration in all studies, including controls, was ≤0.2%. Cell viability assay was performed after 72 h of drug treatment while whole cell lysate preparation and cell cycle analysis were done after 24 h and 48 h of drug treatment. For studying NF-κB and AP-1, Uttroside B was incubated for 2 h before extraction.\nMTT [3-(4,5-dimethylthiazole-2-yl)-2,5-diphenyltetrazolium bromide] assay is a standard colorimetric assay, suitable for analyzing proliferation, viability, and cytotoxicity. Briefly, the HepG2 cells were seeded in 96-well plates (2000 cells/well). […] Fresh media containing 25 μL of MTT solution (5 mg/mL in PBS) and 75 μL of complete medium was added to the wells and incubated for 2 h. At the end of incubation, lysis buffer (20% sodium dodecyl sulphate in 50% dimethyl formamide)was added to the wells (0.1 mL/well) and incubated for another 1 h at 37° C. At the end of incubation, the optical density was measured at 570 nm using ELISA plate reader (Bio-Rad). The relative cell viability in percentage was calculated as (A570 of treated samples/A570 of untreated samples)×100. The IC50 values were extrapolated from polynomial regression analysis of study data.^17"}, "Swiss albino mice": {"tested_on": "Swiss albino mice", "experiment": "Acute toxicity study", "assay_type": "in vivo", "method": "Toxicological evaluation:a. Animals: Six to eight-week-old female Swiss albino mice (18-22 g) were obtained from the Animal Research Facility of Rajiv Gandhi Centre for\nBiotechnology and the study was performed under protocols approved by Institutional Animal Ethical Committee of Rajiv Gandhi Centre for Biotechnology (IAEC No: 151 (a)/RUBY/2012) b. Acute toxicity study: Swiss albino mice were randomly divided into 3 groups of 6 animals each and were allowed to acclimatize for a week. Group I was taken as the control, which received only vehicle, while Group II and III received a single dose of Uttroside B dissolved in PBS (10 mg/kg and 50 mg/Kg body weight respectively). The mice were observed continuously for 1 h, for any gross behavioral changes and death, and then intermittently for the next 6 h and 24 h. The animals were observed frequently for the next 7 days from the day of treatment after which, the animals were euthanized in a CO2 chamber. The blood serum was collected for analyzing biochemical parameters of liver function, the abnormal values of which are indicative of toxicity. The liver was fixed in 10% buffered formalin and the thin cryostat sections (LEICA CM 1850UV Cryostat) were stained with haematoxylin and eosin for histopathological evaluation.^17"}, "[2]": {"settings": "HepG2, 48 h, concentration dependent"}, "[3]": {"settings": "10 mg/kg and 50 mg/kg single dose"}},
  "data": [
    {"compound": "C[C@H](CC[C@@]1(O)O[C@H]2C[C@H]3[C@@H]4CC[C@H]5C[C@@H](O[C@@H]6O[C@H](CO)[C@H](O[C@@H]7O[C@H](CO)[C@@H](O)[C@H](O[C@@H]8OC[C@@H](O)[C@H](O)[C@H]8O)[C@H]7O[C@@H]7O[C@H](CO)[C@@H](O)[C@H](O)[C@H]7O)[C@H](O)[C@H]6O)CC[C@]5(C)[C@H]4CC[C@]3(C)[C@H]2[C@@H]1C)CO[C@@H]1O[C@H](CO)[C@@H](O)[C@H](O)[C@H]1O", "note": "[Uttroside B]", "values": [
      {"measurement": "IC50", "setting": "PC-12", "result": 1200, "unit": "nM"},
      {"measurement": "cleavage of PARP", "setting": "[1]; HepG2, 48 h", "result": "strong cleavage of the mother band to its daughter bands"},
      {"measurement": "cleavage of procaspase 7", "setting": "[1]; [2]", "result": "procaspase 7 into its active fragment (p-20) were also enhanced"},
      {"measurement": "cleavage of procaspase 8", "setting": "[1]; [2]", "result": "increase in the cleavage of procaspase 8 to its active fragments"},
      {"measurement": "cleavage of procaspase 9", "setting": "[1]; HepG2, Western blot", "result": "time-dependent and concentration-dependent increase in the cleavage of procaspase 9"},
      {"measurement": "IC50", "setting": "HepG2 cells", "result": 500, "unit": "nM"},
      {"measurement": "histopathological analysis of liver tissue, acute", "setting": "Swiss albino mice; 10 mg/kg and 50 mg/kg", "result": "did not manifest any morphological change characteristic of toxicity"},
      {"measurement": "behavior", "setting": "Swiss albino mice; [3]", "result": "did not exhibit any abnormal behavior"},
      {"measurement": "serum levels of AST, ALT and ALP", "setting": "Swiss albino mice; [3]", "result": "did not show any deviation in the serum levels"},
      {"measurement": "liver tissue changes at five times the treatment dose", "setting": "Swiss albino mice; 50 mg/kg, acute, reversible changes", "result": "micro vesicular fatty changes"},
      {"measurement": "gross adverse response (body weight, fur, behavior, food intake)", "setting": "Swiss albino mice; up to 5 times dose", "result": "failed to exhibit any signs of cumulative adverse response"}
    ]}
  ]
}
